Data set [1] can be described thus: Determination of relaxivity (longitudinal R1 by Inversion Recovery, transverse R2 by Carr-Purcell-Meiboom-Gill sequence, MINISPEC PC 120 BRUKER). The settings on record: 20 MHz (proton), 39°C, pH 7.3, 0 to 5 mM, water; for R₁: longitudinal relaxivity; for R₂: transverse relaxivity. In kind it is physicochemical. Here is the method: Determination of the relaxivity of the compounds of the present invention.
Longitudinal relaxivity (R₁) measurements were calculated using the "Inversion Recovery" sequence with an 8 point minimum and a 3 parameter fit, according to the program provided for the MINISPEC […] BRUKER instrument, by which measurements were taken.
Transverse relaxivity (R₂) measurements were calculated using the sequence of Carr, Purcell, Meiboom and Gill, according to the program provided for the MINISPEC 120 BRUKER instrument, by means of which measurements were taken, adjusting the apparatus in such a way as to observe the decay of the signal to about 1/3 of the starting value, with a score number higher or equal to 10 and a 2 parameter fit.
In table I, R₁ and R ₂ values calculated for compounds A and B in comparison with Gd/DTPA neutralized with N-methylglucamine, are reported as non-limiting examples.

The test system of a further data set is mouse. Put plainly: Determination of LD50 in the mouse by intravenous administration. In kind it is in vivo. The settings on record: male and female mice, Strain: Crl:CDl(ICR)BR, range in parentheses. The text has this: Determination of LD₅₀ in the mouse by intravenous administration of the compounds of the present invention. In table II are reported, as non-limiting examples, the LD₅₀ values for compounds A and B of the present invention, in comparison with GdCl₃ and with Gd/DTPA neutralized with N-methylglucamine.

For `C[NH2+]C[C@H](O)[C@@H](O)[C@H](O)[C@H](O)CO.O=C([O-])CN1CCN(CC(=O)[O-])CCN(C(COCc2ccccc2)C(=O)[O-])CCN(CC(=O)[O-])CC1.[Gd+3]` (stereo not shown) [A, Gd^(3+)/2-[1,4,7,10-tetraaza-4,7,10-tri(carboxymethyl)-cyclododecane-1-yl]-3-benzyloxypropionic acid, neutralized with N-methylglucamine], in data set [1] (solvent 0.154 M NaCl (0.9%)), the R₁ was 4.15 ± 0.01 mM/s and the R₂ was determined as 5.67 ± 0.02 mM/s. Further, in the data set on mouse, the “LD₅₀ in the mouse* in mmol/kg - intravenous” value (“LD₅₀ in the mouse* in mmol/kg” for short) is on record as 8.8 (7.79 - 9.94) mmol/kg.

In data set [1] (solvent 0.154 M NaCl (0.9%)), `C[NH2+]C[C@H](O)[C@@H](O)[C@H](O)[C@H](O)CO.O=C([O-])CN1CCN(CC(=O)[O-])CCN(C(CO)C(=O)[O-])CCN(CC(=O)[O-])CC1.[Gd+3]` (stereo not shown) [B, Gd^(3+)/2-[1,4,7,10-tetraaza-4,7,10-tri(carboxymethyl)-cyclododecane-1-yl]-3-hydroxypropionic acid, neutralized with N-methylglucamine] showed a R₁ of 3.72 ± 0.01 mM/s and a R₂ of 5.06 ± 0.01 mM/s. The “LD₅₀ in the mouse* in mmol/kg” value in the data set on mouse was 13.1 (12.2 - 14.1) mmol/kg.

In data set [1] (solvent 0.154 M (0.9%)), `CNC[C@H](O)[C@@H](O)[C@H](O)[C@H](O)CO.CNC[C@H](O)[C@@H](O)[C@H](O)[C@H](O)CO.O=C([O-])CN(CCN(CC(=O)[O-])CC(=O)O)CCN(CC(=O)[O-])CC(=O)O.[Gd+3]` [Gd/DTPA, reference compound] had a R₁ of 4.08 ± 0.01 mM/s and a R₂ of 5.15 ± 0.02 mM/s. Further, the “LD₅₀ in the mouse* in mmol/kg” value in the data set with mouse is listed as 4.8 (4.47 - 5.16) mmol/kg.

Turning to `[Cl][Gd]([Cl])[Cl]` [GdCl₃, reference compound], the “LD₅₀ in the mouse* in mmol/kg” value in the data set with mouse is reported as 0.28 (0.24 - 0.32) mmol/kg.

The values above are taken from patent EP0325762B1, “Macrocyclic chelating agents and chelates thereof” (BRACCO S.p.A., priority 1987, dated 1989).
